The subject of one experiment is C. neoformans Crm1^OE. Kind of experiment: microbe, parasite or virus in culture. To be noted: compound alone; RPMI1640, 37 °C, 48 h. The class given is cell-based, Cryptococcus neoformans. On the procedure: (§1) All microdilution assays with fungi were carried out in accordance with CLSI protocols from M27 for yeasts and M38 for filamentous fungi, respectively, unless otherwise specified.[64],[65] Briefly, 96-well plates were charged with RPMI1640 media, with operating volume in the first column, 200 μL, and half operating volume, 100 μL, in the remaining wells. Drug stock solution in DMSO was aliquoted into the first well in each row. Half of the volume in the dosed well was serially diluted 2-fold until column 11. Column 11 was used as the negative growth control, and column 12 was used as the positive growth control. ON yeast cultures in YPD were washed twice in DD-H2O, resuspended in PBS, and adjusted to 5000 cfu/mL in RPMI. The 96-well plate was inoculated with 100 μL aliquots of cell suspension per well. Plates were incubated at 37 °C for 2 days.

In experiment [1] the test system is C. neoformans H99. Kind of experiment: microbe, parasite or virus in culture. Format: cell-based, Cryptococcus neoformans. Here is the method: as §1
A further experiment concerns C. neoformans MRL862. Kind of experiment: microbe, parasite or virus in culture. As to conditions: compound alone; RPMI1640, 37 °C, 48 h. The class given is cell-based, Cryptococcus neoformans. On the procedure:
as §1

A further experiment concerns C. neoformans apt1Δ. Kind of experiment: microbe, parasite or virus in culture. The class given is cell-based, Cryptococcus neoformans. To be noted: compound alone; RPMI1640, 37 °C, 48 h. On the procedure: as §1
A further experiment concerns C. neoformans apt2Δ. Kind of experiment: microbe, parasite or virus in culture. To be noted: compound alone; RPMI1640, 37 °C, 48 h. The class given is cell-based, Cryptococcus neoformans. Here is the method:
as §1

Another experiment has as its system C. neoformans apt3Δ. The experiment can be described thus: microbe, parasite or virus in culture. Format: cell-based, Cryptococcus neoformans. As to conditions: compound alone; RPMI1640, 37 °C, 48 h. On the procedure:
as §1

A further experiment concerns C. neoformans apt4Δ. The experiment can be described thus: microbe, parasite or virus in culture. The class given is cell-based, Cryptococcus neoformans. To be noted: compound alone; RPMI1640, 37 °C, 48 h. On the procedure: as §1
A further experiment has as its system C. neoformans cdc50Δ. Kind of experiment: microbe, parasite or virus in culture. Format: cell-based, Cryptococcus neoformans. On the procedure:
as §1

The subject of a further experiment is C. neoformans crm1Δ. Kind of experiment: microbe, parasite or virus in culture. To be noted: compound alone; RPMI1640, 37 °C, 48 h. The class given is cell-based, Cryptococcus neoformans. Here is the method: as §1
The subject of a further experiment is C. glabrata 2001. The experiment can be described thus: microbe, parasite or virus in culture. Format: cell-based, Candida glabrata. On the procedure:
as §1

A further experiment has as its system C. glabrata FKS1-S629P. Kind of experiment: microbe, parasite or virus in culture. The class given is cell-based, Candida glabrata. As to conditions: compound alone; RPMI1640, 37 °C, 48 h. On the procedure: as §1
The next experiment deals with C. glabrata FKS2-S663P. Kind of experiment: microbe, parasite or virus in culture. The class given is cell-based, Candida glabrata. To be noted: compound alone; RPMI1640, 37 °C, 48 h. Here is the method:
as §1

For the next experiment, the system named is C. albicans SC5413. Kind of experiment: microbe, parasite or virus in culture. Format: cell-based, Candida albicans. On the procedure:
as §1

The subject of the next experiment is C. auris B11245. The experiment can be described thus: microbe, parasite or virus in culture. The class given is cell-based, Candida auris. To be noted: compound alone; RPMI1640, 37 °C, 48 h; * = paradoxical growth observed (CAS). On the procedure: as §1
In the next experiment the test system is A. fumigatus AF293. The experiment can be described thus: microbe, parasite or virus in culture. Format: cell-based, Aspergillus fumigatus. As to conditions: compound alone; RPMI1640, 37 °C, 48 h; * = paradoxical growth observed (CAS). Here is the method:
as §1

In another experiment the test system is Cn H99. The experiment can be described thus: microbe, parasite or virus in culture. Format: cell-based, Cryptococcus neoformans. To be noted: 37 °C, 48 h. Here is the method:
(§2) Previous studies have shown that modifying microbiological media with salts such as CaCl2 can have a drastic effect on the growth of fungi and their responses to antifungals.[19],[35] In the case of CaCl2, the divalent cation, Ca^2+, is involved in fungal cell stress response. To understand how the peptide activity may involve calcium and stress response, the MICs of KKOO, KKOO-NH2, FLC, and CAS were assessed as a function of the calcium concentration in liquid YPD media. It was observed that calcium enrichment completely desensitized the wild-type strain to KKOO and KKOO-NH2, Tables 7 and 8, respectively. Effects of calcium enrichment on the susceptibility of Cryptococcus to CAS similar to literature values were recorded, Supporting Information, Table S7.[35]
(§3) In order to control for the effects of enriching YPD with a divalent cation, MICs and ROS production were also measured as a function of the MgCl2 supplement at the same millimolar concentrations of cation as in the CaCl2-modified experiments. […] No peptide susceptibility changes were observed against Cn cdc50Δ in magnesium-enriched media, Table S9. ROS production in H99 induced by peptide exposure was inhibited after 30 min of treatment in the magnesium-enriched condition, similar to the levels observed in the calcium-enriched media at 16 μg/mL KKOO-NH2, Figure S1. […] The link between peptide activity and calcium homeostasis may be vital in understanding precisely how the peptide kills fungal cells and requires more research to elucidate.
as §1

The next experiment deals with Cn cdc50Δ. Kind of experiment: microbe, parasite or virus in culture. The class given is cell-based, Cryptococcus neoformans. As to conditions: 37 °C, 48 h. Here is the method: as §2, §3, §1
A further experiment has as its system Cn Crm1-oe. Kind of experiment: microbe, parasite or virus in culture. Format: cell-based, Cryptococcus neoformans. As to conditions: YPD + 0 mM Ca2+, 37 °C, 48 h. On the procedure:
as §2, §1

The test system of the next experiment is Cn apt1Δ. Kind of experiment: microbe, parasite or virus in culture. The class given is cell-based, Cryptococcus neoformans. To be noted: 37 °C, 48 h. Here is the method:
as §2, §1

The test system of a further experiment is Cn crm1Δ. Kind of experiment: microbe, parasite or virus in culture. The class given is cell-based, Cryptococcus neoformans. To be noted: YPD + 0 mM Ca2+, 37 °C, 48 h. Here is the method:
as §2, §1

In experiment [2] the test system is C. neoformans H99. The class given is cell-based, Cryptococcus neoformans. To be noted: 2× MIC; subsequent rebound of the population through 8 h; RPMI1640, 30 °C. On the procedure:
Culture tubes were prepared with aliquots of 2.0 mL of RPMI1640 (containing Q, MOPS, pH = 7, no phenol red). The tubes were sealed to prevent evaporation and were equilibrated with the incubation chamber overnight, at 30 °C. On the day of the experiment, overnight yeast cultures in YPD were washed twice with DD-H2O and resuspended in DD-H2O. The OD600 of the cell suspension was adjusted to 4.6, ≈2 × 10^6 cfu/mL, in DD-H2O. A 200 μL aliquot of adjusted cell suspension was added systematically to each tube, followed by 200 μL sampling for the 0 h time point. Immediately after sampling, the antifungal compounds were added, and the tubes were placed in the incubator at 30 °C with shaking at 225 rpm. The sampled aliquot was transferred to a 96-well plate and serially diluted six times, 10-fold each time. The resulting cell suspensions were spotted onto YPD plates in a grid pattern of 5 μL per spot. Subsequently, tubes were briefly removed from the incubator, and 100 μL aliquots were sampled at 2, 4, 6, and 8 h time points. Cells were counted on the YPD plates at either 24 or 48 h after plate spotting, depending on when the colonies were countable. Images of the YPD plates were recorded on the Bio-Rad Gel imager after 48 h of incubation at 30 °C. […] 2 C = number of colonies counted, Df = dilution factor = 10^n–1, n = column that the cells were counted, and Vf = volume factor = 1/0.005 mL.

The subject of experiment [3] is C. neoformans H99. As to conditions: previously published peptide; cited from earlier work.
Experiment [4] deals with C. neoformans H99. On the set-up: method as in PMID 35377230. As to conditions: with CAS, additive drug synergy; cited from earlier work. The source says: We endeavored to develop an inhibitor to target flippase function in Cn and harness the critical importance of Cdc50 in antifungal drug resistance and virulence. […] The peptide sequence was identified using an epitope approach. First, anti-Cdc50 polyclonal antibodi ...

The mark [5] stands for this setting: Table S1, unit and conditions not given (MICs elsewhere in μg/mL).
The mark [6] stands for this setting: compound alone, RPMI1640, 37 °C, 48 h.

Values after ≈ are worked out from the molar mass of the structure shown. Read-outs that look alike come from different tables or passages of the source. Square brackets hold non-standard residues; d marks the D form. Ends that are not written are not given here. Peptide text beside a SMILES is read from it. * marks the point of attachment. Myristoyl = CCCCCCCCCCCCCC(=O)*; Orn = NCCC[C@H](N)C(=O)O

`CCCCCCCCCCCCCC(=O)N[C@@H](Cc1c[nH]c2ccccc12)C(=O)NCC(=O)NCC(=O)N[C@H](C(=O)N[C@@H](CCCN)C(=O)N[C@@H](CCCN)C(=O)N[C@@H](CC(N)=O)C(=O)N[C@@H](Cc1ccc(O)cc1)C(=O)N[C@@H](C)C(=O)O)[C@@H](C)CC` [KKOO] (Myristoyl-WGGI[Orn][Orn]NYA-OH): the MIC amounted to 8 µg/mL (≈ 6.57 µM) against C. neoformans Crm1^OE; 16 µg/mL (≈ 13.1 µM) in the experiment with C. neoformans H99 [1] (setting [6]); 8 µg/mL (≈ 6.57 µM) against C. neoformans MRL862; 4 µg/mL (≈ 3.28 µM) in the experiment with C. neoformans apt1Δ; 8 µg/mL (≈ 6.57 µM) with C. neoformans apt2Δ; 8 µg/mL (≈ 6.57 µM) with C. neoformans apt3Δ. For the same compound, the MIC with C. neoformans apt4Δ was determined as 8 µg/mL (≈ 6.57 µM); in the experiment with C. neoformans cdc50Δ (setting [6]) it was 4 µg/mL (≈ 3.28 µM); with C. neoformans crm1Δ it was 8 µg/mL (≈ 6.57 µM); in the experiment on C. glabrata 2001 (setting [6]) it was 16 µg/mL (≈ 13.1 µM); in the experiment with C. glabrata FKS1-S629P, 16 µg/mL (≈ 13.1 µM); with C. glabrata FKS2-S663P, 16 µg/mL (≈ 13.1 µM). In addition, the MIC was 32 µg/mL (≈ 26.3 µM) in the experiment with C. albicans SC5413 (setting [6]); over 128 µg/mL in the experiment with C. auris B11245; over 128 µg/mL in the experiment on A. fumigatus AF293; 32 µg/mL in the experiment with Cn H99 (YPD + 0 mM Ca2+); 16 µg/mL in the experiment with Cn H99 (YPD + 0 mM Mg2+); over 128 µg/mL in the experiment on Cn H99 (YPD + 2.5 mM Ca2+). Further, the MIC is 32 µg/mL in the experiment with Cn H99 (YPD + 2.5 mM Mg2+); over 128 µg/mL in the experiment on Cn H99 (YPD + 5 mM Ca2+); 32 µg/mL in the experiment on Cn H99 (YPD + 5 mM Mg2+); over 128 µg/mL in the experiment with Cn H99 (YPD + 10 mM Ca2+); 32 µg/mL in the experiment on Cn H99 (YPD + 10 mM Mg2+); over 128 µg/mL in the experiment on Cn H99 (YPD + 20 mM Ca2+). In addition, the MIC turned out to be 128 µg/mL in the experiment on Cn H99 (YPD + 20 mM Mg2+); 4 µg/mL with Cn cdc50Δ (YPD + 0 mM Ca2+); 8 µg/mL in the experiment on Cn cdc50Δ (YPD + 0 mM Mg2+, unit inferred); 8 µg/mL in the experiment with Cn cdc50Δ (YPD + 2.5 mM Ca2+); 8 µg/mL in the experiment on Cn cdc50Δ (YPD + 2.5 mM Mg2+, unit inferred); 8 µg/mL with Cn cdc50Δ (YPD + 5 mM Ca2+). Moreover, the MIC with Cn cdc50Δ (YPD + 5 mM Mg2+, unit inferred) was 8 µg/mL; with Cn cdc50Δ (YPD + 10 mM Ca2+), 8 µg/mL; with Cn cdc50Δ (YPD + 10 mM Mg2+, unit inferred), 4 µg/mL; in the experiment on Cn cdc50Δ (YPD + 20 mM Ca2+), 8 µg/mL; with Cn cdc50Δ (YPD + 20 mM Mg2+, unit inferred), 8 µg/mL; in the experiment on Cn Crm1-oe it was 8 µg/mL. The MIC amounted to 8 µg/mL with Cn apt1Δ (YPD + 0 mM Ca2+), 32 µg/mL in the experiment with Cn apt1Δ (YPD + 2.5 mM Ca2+) and 8 µg/mL in the experiment with Cn crm1Δ. Besides, the “MIC (SAR screen peptides)” value turned out to be 16 in the experiment with C. neoformans H99 [1] (setting [5]), 4 with C. neoformans cdc50Δ (setting [5]), 16 with C. glabrata 2001 (setting [5]) and 16 in the experiment on C. albicans SC5413 (setting [5]). Further, in the experiment on C. neoformans H99 [2], the “time of peak killing activity” value was at most 2 h.

Consider AW9-Ma (Myristoyl-WGGIKKNYA), for which, in the experiment on C. neoformans H99 [3], the MIC was 64 µg/mL. Besides, in the experiment on C. neoformans H99 [4], the “fractional inhibition concentration (FIC) index” value was 0.5.
